Results reported in article PMC6039432, “A small-molecule inhibitor of SOD1-Derlin-1 interaction ameliorates pathology in an ALS mouse model” (Nature Communications, 2018).

Tests used:
[1] = biological target: T1, SOD1 (GST-SOD1 / Flag-SOD1; WT or G93A) (Homo sapiens, UniProt P00441, G94A); assay: fluorescence polarization (intrinsic fluorescence of compound); type: binding
T1 construct: full length; GST fusion from pGEX-6P-1 in E. coli BL21, eluted with glutathione (tag apparently kept), loaded with CuSO4 and ZnCl2 (described for activity assay); Flag-tagged in HEK293A for pull-down
T1 sequence (P00441 2-154 G94A): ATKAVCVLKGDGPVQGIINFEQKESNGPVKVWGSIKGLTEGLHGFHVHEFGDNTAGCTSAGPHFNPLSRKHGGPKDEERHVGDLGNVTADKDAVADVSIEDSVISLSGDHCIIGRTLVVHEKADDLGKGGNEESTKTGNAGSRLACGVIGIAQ

[2] = biological target: T2, SOD1-Derlin-1 complex (Flag-SOD1 / Derlin-1-HA) (Homo sapiens, UniProt P00441, G94A); assay: in vitro co-immunoprecipitation of purified complex, immunoblot; type: biochemical
T2 construct: Flag-SOD1 G93A and Derlin-1-HA co-expressed in HEK293A; complex purified on anti-Flag beads for the in vitro assay, or assayed in cells; all tags kept; with Derlin-1
T2 sequence (P00441 2-154 G94A): as above
T2 sequence (Q9BUN8 2-251 partner): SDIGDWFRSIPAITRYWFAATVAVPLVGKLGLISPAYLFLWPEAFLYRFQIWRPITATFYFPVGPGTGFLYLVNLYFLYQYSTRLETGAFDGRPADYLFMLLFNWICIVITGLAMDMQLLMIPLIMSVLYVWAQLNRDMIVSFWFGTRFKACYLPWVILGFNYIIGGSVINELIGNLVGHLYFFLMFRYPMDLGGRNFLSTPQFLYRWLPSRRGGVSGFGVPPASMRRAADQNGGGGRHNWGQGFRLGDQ

For `Nc1c(C(=O)Nc2ccc(Br)cc2Br)sc2nc(-c3cccnc3)ccc12` [#56-20], the Kd [1] was 81.1 µM and the IC50 [2] was 7.11 µM.

Compound `Nc1c(C(=O)Nc2ccc(Cl)cc2Cl)sc2nc(-c3cccnc3)ccc12` [#56-26] has an IC50 [2] of 6.2 µM.

`Nc1c(C(=O)Nc2ccc3c(c2)OCO3)sc2nc(-c3cccnc3)ccc12` [#56] showed an IC50 [2] of 23.3 µM.
